Results taken from article PMC4750701, “Role of Mitochondrial RNA Polymerase in the Toxicity of Nucleotide Inhibitors of Hepatitis C Virus” (Antimicrobial Agents and Chemotherapy, 2016).
Read-outs that look alike come from different tables or passages of the source. Blank lines part the entries; values can stand above or below the compound they belong to.

What was measured:
recombinant human PolRMT = target: T1, recombinant human PolRMT (Homo sapiens, UniProt O00411); test: Inhibition of PolRMT-catalyzed RNA synthesis; assay type: biochemical; details: read-out: Mean IC50 ± SD for PolRMT
T1 construct: purchased Enzymax (Lexington, KY)
Source text: Activated fish sperm DNA was purchased from USB/Affymetrix (Santa Clara, CA) and used as a template for the DNA polymerases alpha, beta, and gamma. […] The RNA and DNA oligonucleotides used in the mitochondrial RNA polymerase assay (see Table S1 in the supplemental material) were synthesized and PAGE purified by Thermo Scientific/Dharmacon (Lafayette, CO). RNA primer R12 was 5′-^32P-phosphorylated with [γ-^32P]ATP (3,000 Ci/mmol) and T4 kinase (New England BioLabs, Ipswich, MA).
(§1) Human DNA polymerase alpha, isolated from HeLa cell extracts, was from CHIMERx (Madison, WI). Recombinant human DNA polymerase beta, expressed in E. coli, was a gift from Zucai Suo at The Ohio State University. Recombinant human DNA polymerase gamma (including both the large subunit and the small subunit) was cloned, expressed, and purified from insect cells by Gilead Sciences (Foster City, CA) ([13]). RNA PolII was purchased as part of the HeLaScribe nuclear extract in vitro transcription system kit from Promega (Madison, WI). The recombinant human PolRMT and the transcription factors mitochondrial transcription factor A (mtTFA) and B2 (mtTFB2) were purchased from Enzymax (Lexington, KY). FLAG epitope-tagged RNA PolI and PolIII complexes were isolated from rat NSN1 cells and HeLa cells, respectively ([17], [18]). The inhibition of DNA polymerases alpha, beta, and gamma, PolRMT, and PolII and the rate of single-nucleotide incorporation by PolRMT have been described previously in detail ([12], [13], [19]). Inhibition of RNA PolI and PolIII was studied using published methods ([20], [21]). All concentrations were final unless noted otherwise. […] After incubation at 30°C for 20 min to 1 h, the reactions were terminated by pipetting the mixtures onto DEAE-cellulose discs (DE81; Whatman), and the products analyzed as described previously ([20], [21]).

RNA PolIII = target: T2, RNA PolIII (Homo sapiens, UniProt O14802+Q9NW08); test: RNA PolIII inhibition assay; assay type: biochemical; details: competing NTP 100 μM CTP and GTP, 500 μM ATP; read-out: Mean IC50 ± SD for RNA PolIII
T2 construct: complexes were isolated from rat NSN1 cells and HeLa cells, respectively; made in house; host or cells: HeLa cells expressing a FLAG-tagged Pol III subunit
Source text: as §1, with “otherwise. For the RNA PolI inhibition assay, a reaction mixture containing 50 mM HEPES (pH 7.9), 20% glycerol, 100 mM KCl, 1 mM dithiothreitol (DTT), 50 μg/ml calf thymus DNA, 4 mM MgCl2, 5 or 80 μM UTP (0.25 μl of [5,6-^3H]UTP, >25 Ci/mmol; PerkinElmer), 1 mM noncompeting NTP, competing NTP (5 μM for GTP, CTP, and UTP and 25 μM for ATP), and various concentrations (0 to 500 μM) of NTP analogs was preincubated at 30°C for 5 min.” for “otherwise.”
The RNA PolIII inhibition assay was conducted in a similar manner, except that the concentrations of the competing NTP were modified to 100 μM for CTP and GTP and 500 μM for ATP to compensate for the low assay signal at lower NTP concentrations.

RNA PolII = target: T3, RNA PolII (Homo sapiens, UniProt P24928+P30876); test: Inhibition of RNA PolII (HeLaScribe nuclear extract transcription); assay type: biochemical; details: nucleotide analogs (Table 6); read-out: Mean IC50 ± SD for RNA PolII
T3 construct: purchased as part of the HeLaScribe nuclear extract in vitro transcription system kit; purchased Promega (Madison, WI); host or cells: HeLa nuclear extract (endogenous enzyme)
Source text: Activated fish sperm DNA was purchased from USB/Affymetrix (Santa Clara, CA) and used as a template for the DNA polymerases alpha, beta, and gamma. The DNA template used in the RNA Pol II assay was a 1,188-bp restriction fragment containing the cytomegalovirus (CMV) immediate early promoter (Promega, Madison, WI). The RNA and DNA oligonucleotides used in the mitochondrial RNA polymerase assay (see Table S1 in the supplemental material) were synthesized and PAGE purified by Thermo Scientific/Dharmacon (Lafayette, CO). RNA primer R12 was 5′-^32P-phosphorylated with [γ-^32P]ATP (3,000 Ci/mmol) and T4 kinase (New England BioLabs, Ipswich, MA).
as §1, with “otherwise. For the RNA PolI inhibition assay, a reaction mixture containing 50 mM HEPES (pH 7.9), 20% glycerol, 100 mM KCl, 1 mM dithiothreitol (DTT), 50 μg/ml calf thymus DNA, 4 mM MgCl2, 5 or 80 μM UTP (0.25 μl of [5,6-^3H]UTP, >25 Ci/mmol; PerkinElmer), 1 mM noncompeting NTP, competing NTP (5 μM for GTP, CTP, and UTP and 25 μM for ATP), and various concentrations (0 to 500 μM) of NTP analogs was preincubated at 30°C for 5 min.” for “otherwise.”

RNA PolI = target: T4, RNA PolI (Rattus norvegicus, UniProt O54889); test: RNA PolI inhibition assay; assay type: biochemical; details: NTP analogs 0 to 500 μM; read-out: Mean IC50 ± SD for RNA PolI
T4 construct: complexes were isolated from rat NSN1 cells and HeLa cells, respectively; made in house; host or cells: rat NSN1 cells expressing a FLAG-tagged Pol I subunit
Source text: as §1, with “otherwise. For the RNA PolI inhibition assay, a reaction mixture containing 50 mM HEPES (pH 7.9), 20% glycerol, 100 mM KCl, 1 mM dithiothreitol (DTT), 50 μg/ml calf thymus DNA, 4 mM MgCl2, 5 or 80 μM UTP (0.25 μl of [5,6-^3H]UTP, >25 Ci/mmol; PerkinElmer), 1 mM noncompeting NTP, competing NTP (5 μM for GTP, CTP, and UTP and 25 μM for ATP), and various concentrations (0 to 500 μM) of NTP analogs was preincubated at 30°C for 5 min.” for “otherwise.”

[1] = Cytotoxicity in quiescent PBMCs, 5 days; details: human, quiescent PBMCs
Protocol: (§3) Human peripheral blood mononuclear cells (PBMCs) were isolated from human buffy coats obtained from healthy volunteers (Stanford Blood Bank, Palo Alto, CA) using standard Ficoll separation and stimulated as described elsewhere ([13]) and were tested at both quiescent and stimulated stages. Quiescent PBMCs were stimulated with 10 units per ml of recombinant human interleukin 2 (hIL-2) and 1 μg per ml phytohemagglutinin P (PHA-P) for 48 h prior to drug treatment.
(§4) All cells were cultured at 37°C in a 5% CO2 incubator with 90% humidity unless noted otherwise. […] All cells were treated with the various compounds for 5 days, except for human erythroid and myeloid progenitors, which were treated for 14 days. After the incubation period, cell viability was measured by the addition of CellTiter Glo viability reagents (Promega, Madison, WI). The luminescence signal was quantified on an Envision luminescence plate reader (PerkinElmer, Waltham, MA) after incubation of the reagents and cells for 10 min at room temperature. […] CC50 values were calculated as the average of the results of three or four independent experiments.
(§5) Human peripheral blood mononuclear cells (PBMCs) were isolated from human buffy coats
(§6) obtained from normal healthy volunteers (Stanford Medical School Blood Center, Palo Alto,
(§7) CA). Total PBMCs were isolated from buffy coats using standard Ficoll separation and sterile
(§8) cellular isolation techniques performed in a bio-safety cabinet (1). Except where noted, the
(§9) procedure was carried out at room temperature. The final PBMCs pellet was resuspended in
(§10) Logan, UT), penicillin 100 units/mL and streptomycin 100 µg/mL (Gibco). For quiescent
(§11) PBMCs cultures, total cells were seeded in 96-well plates at a density of 1 x 10^6 cells per well, followed by immediate drug treatment. Stimulated PBMCs cultures were set up by seeding the freshly isolated PBMCs in T-175cm2 tissue culture flasks in 100 mL of RPMI containing the same components as the ones used for the quiescent PBMCs but with the addition of 10 units per mL of recombinant human interleukin-2 (hIL-2, Roche, Indianapolis, IN), and 1 µg per mL phytohemagglutinin-P (PHA-P, Sigma-Aldrich, St. Louis, MO) at density of 2  10^6 cells per mL for 48 hours at 37C in a 5% CO2 incubator with 90% humidity, prior to drug treatment.

[2] = Cytotoxicity / ATP level in PC-3 cells, 5-day treatment; details: human, PC-3 cells
Protocol: as §4
Cell Culture and Cytotoxicity Studies
(§12) The Huh-7 cells were maintained in growth medium containing Dulbecco's Modified Eagle
(§13) Medium (DMEM, Cellgro) supplemented with 1% Nonessential Amino Acids (NEAA, Cellgro,
(§14) Manassas, VA), 10% fetal bovine serum (FBS, HyClone, Logan, UT) and 1% Penicillin-
(§15) streptomycin-glutamate (PSG, Invitrogen, Carlsbad, CA). The cells were passaged twice weekly
(§16) and maintained at 90% confluence densities.
(§17) The HepG2 cells were maintained in Eagle’s Minimum Essential Medium (EMEM) from ATCC
(§18) (Manassas, VA) supplemented with 10% FBS, 100 units/mL penicillin and 100 µg/mL
(§19) streptomycin (P/S) (Gibco). The cells were passaged twice weekly and maintained at 90%
(§20) The PC-3 cells were maintained in Kaighn’s F12 medium (Gibco, Carlsbad, CA) supplemented
(§21) with 10% FBS (HyClone, Logan, UT), 100 units/mL penicillin and 100 µg/mL streptomycin
(§22) (P/S) (Gibco). The cells were passaged twice weekly and maintained at 90% confluence. Cells
(§23) between passages 4 and 15 were used in the assays.
(§24) The fibroblast cell line MRC-5 cell line derived from normal lung tissue, was purchased from
(§25) ATCC (Manassas, VA) and cultured in Minimum Essential Medium (MEM) (Cellgro, Manassas,
(§26) VA) supplemented with 10% FBS (HyClone, Logan, UT) and 1% PSG (Invitrogen). The cells
(§27) were passaged twice weekly and maintained at 90% confluence densities.

[3] = Cytotoxicity in Huh7 cells, 5-day treatment (CellTiter Glo); details: human, Huh-7 cells
Protocol: as §4
Cell Culture and Cytotoxicity Studies
as §12, §13, §14, §15, §16, §17, §18, §19, §20, §21, §22, §23, §24, §25, §26, §27

[4] = tested on: mitochondrial DNA-encoded cytochrome c oxidase (COX-1); test: Mitochondrial protein synthesis assay (COX-1, MitoBiogenesis in-cell ELISA) in PC-3 cells; assay type: cell-based, human; details: PC-3 cells, 5-day treatments
Protocol: (§2) PC-3 cells were treated with the compounds for 5 days and analyzed with the MitoTox MitoBiogenesis in-cell enzyme-linked immunosorbent assay (ELISA) kit (MitoSciences/Abcam, Eugene, Oregon) as described previously ([13]). The assay uses quantitative immunocytochemistry to measure the protein levels of nuclear DNA-encoded succinate dehydrogenase (SDH-A; complex II [succinate dehydrogenase]) and mitochondrial DNA-encoded cytochrome c oxidase (COX-1; complex IV [cytochrome c oxidase]) in cultured cells.

[5] = tested on: mitochondrial DNA-encoded cytochrome c oxidase (COX-1; complex IV) protein level; test: as above; assay type: cell-based, human; details: human; PC-3 cells, COX-1, 5 days; read-out: Mean CC50 ± SD causing Mitochondrial toxicity: Protein synthesis
Protocol: as §2

[6] = Cytotoxicity in primary human hepatocytes, 5 days; details: human, primary human hepatocytes
Protocol: (§28) Primary human hepatocytes were from Bioreclamation IVT (Westbury, NY) or Life Technologies (Carlsbad, CA).
as §4

[7] = tested on: mitochondrial spare respiratory capacity in PC-3 cells; test: Oxygen consumption rate / spare respiratory capacity in PC-3 cells; details: PC-3 cells, 3-day treatments
[8] = tested on: mitochondrial spare respiratory capacity; test: as above; details: human, PC-3 cells, pH 7.4
[9] = Cytotoxicity in MT-4 T-cells, 5-day treatment; details: human, MT-4 cells
Protocol: as §28, §4

[10] = Cytotoxicity in primary rat neonatal cardiomyocytes, 5 days; assay type: cell-based; details: Sprague Dawley, primary rat neonatal cardiomyocytes, 5-day treatment, read-out: CC50 (mean ± standard deviation) in primary rat cardiomyocytes
[11] = tested on: nuclear DNA-encoded succinate dehydrogenase (SDH-A; complex II) protein level; test: Nuclear protein synthesis (SDH-A, MitoBiogenesis in-cell ELISA) in PC-3 cells; assay type: cell-based, human; details: human, read-out: Mean CC50 ± SD causing General cellular toxicity: Protein synthesis
Protocol: as §2

[12] = Cytotoxicity in HepG2 (galactose) cells, 5-day treatment; details: human, HepG2 cells (galactose)
Protocol: as §4
Cell Culture and Cytotoxicity Studies
as §12, §13, §14, §15, §16, §17, §18, §19, §20, §21, §22, §23, §24, §25, §26, §27

[13] = Bone marrow myeloid progenitor colony assay, 14 days; assay type: cell-based, human; details: human, human bone marrow myeloid progenitors, read-out: Mean CC50 ± SD in Bone marrow cells Myeloid
[14] = Cytotoxicity in stimulated PBMCs, 5 days; details: human, stimulated PBMCs
Protocol: as §3, §4, §5, §6, §7, §8, §9, §10, §11

[15] = Cytotoxicity in MRC5 fibroblasts, 5-day treatment; details: human, MRC5 fibroblasts
Protocol: as §4
Cell Culture and Cytotoxicity Studies
as §12, §13, §14, §15, §16, §17, §18, §19, §20, §21, §22, §23, §24, §25, §26, §27

[16] = Bone marrow erythroid progenitor colony assay, 14 days; assay type: cell-based, human; details: human, human bone marrow erythroid progenitors, read-out: Mean CC50 ± SD in Bone marrow cells Erythroid
[17] = tested on: RNA transcription products from PolI (preribosome), PolII (myc), and PolRMT (ATP6) in PC-3 cells; test: RNA transcripts in PC-3 cells by RT-PCR; assay type: cell-based, human; details: 5 μM, 1-day treatment
Protocol: CX-5461, a known specific RNA PolI inhibitor, was used as the positive control ([25]). The growth medium was aspirated and replaced with 200 μl of 100 μM BMS-986094, 5 μM CX-5461, or DMSO control prepared in growth medium. At selected time points (0.5, 1, 4, 8, and 24 h), duplicate wells of the compounds and DMSO control were aspirated, the cells were washed 1× with PBS (pH 7.4), and 100 μl of RNA lysis buffer was added (Promega, Sunnyvale, CA). RNA was purified using the Wizard SV 96 total RNA isolation kit (Promega) and eluted in 100 μl of nuclease-free water. The TaqMan RNA-to-Ct 1-step kit (ABI/Life Technologies) was used for reverse transcription-quantitative PCR (RT-qPCR) amplification and quantification, using the 7900HT Fast real-time PCR system (ABI) under the following conditions: 15 min at 48°C for reverse transcription and 10 min at 95°C for activation, followed by 40 cycles of 15 s at 95°C for denaturation and 1 min at 60°C for annealing and extension. […] Transcripts were quantified relative to the standard curves, and the results expressed as the percentages of the average value of DMSO control wells.

T1 sequence (O00411 42-1230): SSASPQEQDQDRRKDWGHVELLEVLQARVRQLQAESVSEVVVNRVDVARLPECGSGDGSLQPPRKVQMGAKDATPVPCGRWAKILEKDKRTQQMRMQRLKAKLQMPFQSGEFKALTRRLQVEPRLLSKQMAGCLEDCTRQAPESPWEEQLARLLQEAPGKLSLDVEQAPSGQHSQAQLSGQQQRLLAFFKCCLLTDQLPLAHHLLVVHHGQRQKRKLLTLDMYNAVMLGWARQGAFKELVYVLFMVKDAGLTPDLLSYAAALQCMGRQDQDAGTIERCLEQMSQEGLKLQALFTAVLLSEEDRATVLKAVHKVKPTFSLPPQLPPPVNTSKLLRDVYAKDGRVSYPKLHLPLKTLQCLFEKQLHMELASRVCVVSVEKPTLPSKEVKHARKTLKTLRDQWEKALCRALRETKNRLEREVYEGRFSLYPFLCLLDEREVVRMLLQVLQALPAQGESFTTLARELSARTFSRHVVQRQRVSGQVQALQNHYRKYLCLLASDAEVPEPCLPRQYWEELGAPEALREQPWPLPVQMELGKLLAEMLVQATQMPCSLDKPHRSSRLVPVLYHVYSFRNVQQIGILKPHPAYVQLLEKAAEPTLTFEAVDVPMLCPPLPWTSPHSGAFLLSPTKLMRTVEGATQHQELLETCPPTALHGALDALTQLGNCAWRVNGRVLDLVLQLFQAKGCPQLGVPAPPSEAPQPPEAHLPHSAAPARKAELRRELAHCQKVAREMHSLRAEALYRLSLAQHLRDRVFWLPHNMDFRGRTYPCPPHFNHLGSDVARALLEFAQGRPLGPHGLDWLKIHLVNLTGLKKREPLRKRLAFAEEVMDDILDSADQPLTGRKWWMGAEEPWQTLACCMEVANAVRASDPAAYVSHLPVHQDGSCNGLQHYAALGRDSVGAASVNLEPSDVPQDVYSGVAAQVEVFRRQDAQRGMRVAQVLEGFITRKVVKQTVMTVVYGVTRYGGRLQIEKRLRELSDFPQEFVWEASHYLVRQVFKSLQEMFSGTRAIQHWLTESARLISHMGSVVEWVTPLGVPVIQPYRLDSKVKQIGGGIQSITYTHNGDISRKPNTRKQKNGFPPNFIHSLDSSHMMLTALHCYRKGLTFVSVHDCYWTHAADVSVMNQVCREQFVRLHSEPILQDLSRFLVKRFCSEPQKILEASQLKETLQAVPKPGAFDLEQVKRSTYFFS
T4 sequence (O54889 whole entry): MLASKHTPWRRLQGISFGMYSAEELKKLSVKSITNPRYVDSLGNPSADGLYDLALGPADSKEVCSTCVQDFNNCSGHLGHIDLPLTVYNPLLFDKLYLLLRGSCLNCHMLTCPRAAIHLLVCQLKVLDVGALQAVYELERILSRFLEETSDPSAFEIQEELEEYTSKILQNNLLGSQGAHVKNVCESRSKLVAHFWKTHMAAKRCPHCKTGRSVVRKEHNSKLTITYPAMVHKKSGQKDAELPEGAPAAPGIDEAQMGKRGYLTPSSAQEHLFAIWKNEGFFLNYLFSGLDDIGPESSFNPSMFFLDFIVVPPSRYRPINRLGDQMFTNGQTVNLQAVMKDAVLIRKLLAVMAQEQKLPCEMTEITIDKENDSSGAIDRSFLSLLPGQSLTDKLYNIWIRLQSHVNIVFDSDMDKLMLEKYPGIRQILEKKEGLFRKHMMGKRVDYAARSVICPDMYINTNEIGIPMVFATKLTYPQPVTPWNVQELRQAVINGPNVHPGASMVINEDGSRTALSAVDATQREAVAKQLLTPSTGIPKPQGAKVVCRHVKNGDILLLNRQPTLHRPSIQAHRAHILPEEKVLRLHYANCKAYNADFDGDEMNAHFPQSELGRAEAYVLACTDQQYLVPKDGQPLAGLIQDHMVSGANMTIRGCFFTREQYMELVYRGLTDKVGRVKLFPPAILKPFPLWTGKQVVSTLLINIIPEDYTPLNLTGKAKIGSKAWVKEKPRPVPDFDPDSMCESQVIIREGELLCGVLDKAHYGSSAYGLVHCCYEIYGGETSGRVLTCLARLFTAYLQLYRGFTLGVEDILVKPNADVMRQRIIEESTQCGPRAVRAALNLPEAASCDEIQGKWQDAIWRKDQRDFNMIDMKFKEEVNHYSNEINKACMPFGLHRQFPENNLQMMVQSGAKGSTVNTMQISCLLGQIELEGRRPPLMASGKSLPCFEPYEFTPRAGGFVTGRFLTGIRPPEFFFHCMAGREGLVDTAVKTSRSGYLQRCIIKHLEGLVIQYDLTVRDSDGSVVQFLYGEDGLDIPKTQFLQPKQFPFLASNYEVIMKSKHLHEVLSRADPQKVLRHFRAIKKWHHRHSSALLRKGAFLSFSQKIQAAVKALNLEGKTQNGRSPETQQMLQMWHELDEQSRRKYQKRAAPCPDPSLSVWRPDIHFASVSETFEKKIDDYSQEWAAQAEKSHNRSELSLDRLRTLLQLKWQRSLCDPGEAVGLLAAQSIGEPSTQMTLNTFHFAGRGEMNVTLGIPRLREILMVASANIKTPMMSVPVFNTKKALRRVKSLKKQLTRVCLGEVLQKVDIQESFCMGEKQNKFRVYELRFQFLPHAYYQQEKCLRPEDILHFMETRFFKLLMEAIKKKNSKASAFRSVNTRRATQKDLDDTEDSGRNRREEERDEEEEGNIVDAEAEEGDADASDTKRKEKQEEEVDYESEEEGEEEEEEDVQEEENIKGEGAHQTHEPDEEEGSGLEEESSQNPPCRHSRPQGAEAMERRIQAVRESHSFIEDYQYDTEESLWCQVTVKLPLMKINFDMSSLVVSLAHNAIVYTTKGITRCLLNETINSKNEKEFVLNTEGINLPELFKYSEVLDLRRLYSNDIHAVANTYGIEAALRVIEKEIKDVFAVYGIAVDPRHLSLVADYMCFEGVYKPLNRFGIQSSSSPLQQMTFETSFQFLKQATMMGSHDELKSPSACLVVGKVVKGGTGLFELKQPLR

IC50 (recombinant human PolRMT; nucleotide analogs (Table 6)): 4200 ± 1400 nM | IC50 (recombinant human PolRMT; triphosphate form of the compound tested (Table 4)): 4200 ± 1400 nM | IC50 (RNA PolIII): 104000 ± 20000 nM | IC50 (RNA PolII): > 500000 nM | IC50 (RNA PolI): 25000 ± 2000 nM
SMILES: Nc1nc2c(ncn2[C@@H]2O[C@H](COP(=O)(O)OP(=O)(O)OP(=O)(O)O)C[C@H]2O)c(=O)[nH]1 [3′deoxyGTP]

SMILES: COc1ccc(C[C@H](N)C(=O)N[C@H]2[C@@H](O)[C@H](n3cnc4c(N(C)C)ncnc43)O[C@@H]2CO)cc1 [Puromycin]
CC50 at 5 days [1]: 4500 ± 1900 nM | CC50 at 5 days [2]: 220 ± 70 nM | CC50 at 5 days [3]: 520 ± 190 nM | selectivity of effect on COX-1 versus SDH-A and ATP levels [4]: nonselective inhibitive effects on the COX-1, SDH-A, and ATP levels | CC50 at 5 days [5]: 120 ± 10 nM | CC50 at 5 days [6]: 1900 ± 800 nM | selectivity of effect on spare respiratory capacity versus DNA and ATP levels [7]: nonselective inhibition of the spare respiratory capacity, DNA, and ATP levels | CC50 at 3 days [8]: 490 ± 110 nM | CC50 at 5 days [9]: 160 ± 60 nM | CC50 at 5 days [10]: 330 ± 50 nM | CC50 at 5 days [11]: 150 ± 10 nM | CC50 at 5 days [12]: 650 ± 180 nM | CC50 at 14 days [13]: 270 ± 40 nM | CC50 at 5 days [14]: 1000 ± 200 nM | CC50 at 5 days [15]: 240 ± 50 nM | CC50 at 14 days [16]: 360 ± 60 nM

SMILES: Cc1cnc(CNC(=O)c2c(=O)c3ccc(N4CCCN(C)CC4)nc3n3c2sc2ccccc23)cn1 [CX-5461]
relative levels of RNA transcripts (pre-rRNA, myc, mitochondrial ATP6) [17]: selectively decreased pre-rRNA but had no effect on the levels of myc and mitochondrial ATP6 RNAs

IC50 (recombinant human PolRMT; nucleotide analogs (Table 6)): 240000 ± 30000 nM | IC50 (RNA PolIII): > 500000 nM | IC50 (RNA PolII): > 500000 nM | IC50 (RNA PolI): 690000 ± 230000 nM
SMILES: C[C@@]1(O)[C@H](O)[C@@H](COP(=O)(O)OP(=O)(O)OP(=O)(O)O)O[C@H]1n1ccc(=O)[nH]c1=O [2′CMeUTP]
